Reference: ChEMBL document CHEMBL1155668, “A new depsipeptide from the sacoglossan mollusk Elysia ornata and the green alga Bryopsis species” (J Nat Prod, 2000)
Activity calls are given as the source filed them.

How the values were obtained:
Format in all cases: functional, cell-based
[1] = test system: P388; assay: Growth inhibition of mouse P388 cells at 10 ug/mL
[2] = test system: A549; assay: Growth inhibition of human A549 cells at 10 ug/mL
[3] = test system: HT-29; assay: Growth inhibition of human HT29 cells at 10 ug/mL
[4] = test system: MEL28; assay: Growth inhibition of human MEL28 cells at 10 ug/mL

Measured: Activity

CC[C@H](C)[C@@H]1NC(=O)[C@H]([C@@H](C)O)NC(=O)[C@@H](Cc2c[nH]c3ccccc23)NC(=O)[C@@H](Cc2ccc(O)cc2)NC(=O)[C@@H](NC(=O)CNC(=O)CCCC(C)C)[C@@H](C)OC(=O)[C@H](C(C)C)NC1=O
inactive: all assays above
